The record followed here is US20040147574A1, “Isothiazole derivatives” (Pfizer Inc, priority 2003, published 2004).

What is called IC50 is the concentration that gives 50% inhibition. A lower IC50 goes with greater potency in that assay.

The target in this assay is T1, TβRII kinase (Homo sapiens, UniProt P37173).
T1 construct: cytoplasmic domain of TβRII-amino acids 193-567 with A to V change at 438
T1 sequence (P37173 193-567): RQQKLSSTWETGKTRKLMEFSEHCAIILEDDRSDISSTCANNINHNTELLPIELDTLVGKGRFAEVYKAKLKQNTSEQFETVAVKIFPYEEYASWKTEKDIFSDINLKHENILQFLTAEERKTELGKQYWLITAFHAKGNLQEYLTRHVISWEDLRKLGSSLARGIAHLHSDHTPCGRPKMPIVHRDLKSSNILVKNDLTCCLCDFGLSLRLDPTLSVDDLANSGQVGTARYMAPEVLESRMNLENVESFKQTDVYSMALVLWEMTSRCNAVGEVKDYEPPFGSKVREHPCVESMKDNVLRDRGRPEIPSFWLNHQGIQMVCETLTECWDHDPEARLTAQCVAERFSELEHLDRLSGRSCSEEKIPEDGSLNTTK
In words: TGF-β Type II Receptor (TβRII) kinase assay: phosphorylation of myelin basic protein. Conditions: GST-TβRII 27 nanomolar, MBP 3 micromolar, ATP 0.25 micromolar, 90 minutes at room temperature. The format is biochemical. As for the experimental part:
Phosphorylation of myelin basic protein (MBP) by the TβRII kinase was measured as follows: 80 microliters of MBP (Upstate Biotechnology #13-104) diluted in kinase reaction buffer (KRB) containing 50 mM MOPS, 5 mM MgCl2, pH 7.2 to yield a final concentration of 3 micromolar MBP was added to each well of a Millipore 96-well multiscreen-DP 0.65 micron filtration plate (#MADPNOB50). 20 microliters of inhibitor diluted in KRB was added to appropriate wells to yield the desired final concentration (10-0.03 micromolar). 10 microliters of a mixture of ATP (Sigma #A-5394) and ^33P-ATP (Perkin Elmer #NEG/602H) diluted in KRB was added to yield a final concentration of 0.25 micromolar ATP and 0.02 microcuries of ^33P-ATP per well. 10 microliters of a GST-TβRII fusion protein (glutathione S-transferase at the N-terminal end of the cytoplasmic domain of TβRII-amino acids 193-567 with A to V change at 438) diluted in KRB was added to each well to yield a final concentration of 27 nanomolar GST-TβRII. Plates were mixed and incubated for 90 minutes at room temperature. After the reaction incubation, 100 microliters of cold 20% trichloroacetic acid (Aldrich #25,139-9) was added per well and plates were mixed and incubated for 60 minutes at 4° C. Liquid was then removed from the wells using a Millipore vacuum manifold. Plates were washed once with 200 microliters per well of cold 10% trichloroacetic acid followed by two washes with 100 microliters per well of cold 10% trichloroacetic acid. Plates were allowed to dry overnight at room temperature. 20 microliters of Wallac OptiPhase SuperMix scintillation cocktail was added to each well. Plates were sealed and counted using a Wallac 1450 Microbeta liquid scintillation counter. The potency of inhibitors was determined by their ability to reduce TβRII-mediated phosphorylation of the MBP substrate.
`NC(=O)c1c(OCc2cccnc2)nsc1NC(=O)NCCC1=CCCCC1` [Example 3, 5-[3-(2-Cyclohex-1-enyl-ethyl)-ureido]-3-(pyridin-3-ylmethoxy)-isothiazole-4-carboxylic acid amide] displayed an IC50 of 1.61 µM. That is a single-digit micromolar value. As to `Cc1ccc(C)c(CNC(=O)Nc2snc(OCc3cccnc3)c2C(N)=O)c1` [Example 4, 5-[3-(2,5-Dimethyl-benzyl)-ureido]-3-(pyridin-3-ylmethoxy)-isothiazole-4-carboxylic acid amide], the IC50 is 1.6 µM. The IC50 values of the last two compounds are within 1.5-fold of each other. On to `COc1ccc(CCNC(=O)Nc2snc(OCc3cccnc3)c2C(N)=O)cc1OC` [Example 6, 5-{3-[2-(3,4-Dimethoxy-phenyl)-ethyl]-ureido}-3-(pyridin-3-ylmethoxy)-isothiazole-4-carboxylic acid amide], for which the 50% inhibitory concentration (IC50) is 0.754 µM. For `NC(=O)c1c(OCc2cccnc2)nsc1NC(=O)NCCc1ccccc1` [Example 7, 5-(3-Phenethyl-ureido)-3-(pyridin-3-ylmethoxy)-isothiazole-4-carboxylic acid amide], inhibition was half-maximal at 0.94 µM (IC50). Turning to `CCOc1cc(CCNC(=O)Nc2snc(OCc3cccnc3)c2C(N)=O)ccc1OC` [Example 8, 5-{3-[2-(3-Ethoxy-4-methoxy-phenyl)-ethyl]-ureido}-3-(pyridin-3-ylmethoxy)-isothiazole-4-carboxylic acid amide], it took 1.97 µM to reach half-maximal inhibition (IC50). Consider `NC(=O)c1c(OCc2cccnc2)nsc1NC(=O)NCCc1cccc(Cl)c1` [Example 9, 5-{3-[2-(3-Chloro-phenyl)-ethyl]-ureido}-3-(pyridin-3-ylmethoxy)-isothiazole-4-carboxylic acid amide], for which the midpoint of inhibition, the IC50, lay at 2.26 µM. With `COc1cccc(CCNC(=O)Nc2snc(OCc3cccnc3)c2C(N)=O)c1` [Example 10, 5-{3-[2-(3-Methoxy-phenyl)-ethyl]-ureido}-3-(pyridin-3-ylmethoxy)-isothiazole-4-carboxylic acid amide], the IC50 was 2.12 µM. With `NC(=O)c1c(OCc2cccnc2)nsc1NC(=O)NCCc1ccccc1Cl` [Example 11, 5-{3-[2-(2-Chloro-phenyl)-ethyl]-ureido}-3-(pyridin-3-ylmethoxy)-isothiazole-4-carboxylic acid amide], the IC50 turned out to be 2.99 µM. The figure for `NC(=O)c1c(OCc2cccnc2)nsc1NC(=O)NCCc1ccccc1F` [Example 12, 5-{3-[2-(2-Fluoro-phenyl)-ethyl]-ureido}-3-(pyridin-3-ylmethoxy)-isothiazole-4-carboxylic acid amide] is 3.12 µM. `NC(=O)c1c(OCc2cccnc2)nsc1NC(=O)NCCc1cccc(F)c1` [Example 13, 5-{3-[2-(3-Fluoro-phenyl)-ethyl]-ureido}-3-(pyridin-3-ylmethoxy)-isothiazole-4-carboxylic acid amide] returned a 50% inhibitory concentration (IC50) of 1.48 µM.

Regarding `CCOc1ccc(CCNC(=O)Nc2snc(OCc3cccnc3)c2C(N)=O)cc1OC` [Example 14, 5-{3-[2-(4-Ethoxy-3-methoxy-phenyl)-ethyl]-ureido}-3-(pyridin-3-ylmethoxy)-isothiazole-4-carboxylic acid amide], the IC50 was determined as 0.551 µM.

`NC(=O)c1c(OCc2cccnc2)nsc1NC(=O)NCCCN1CCOCC1` [Example 15, 5-[3-(3-Morpholin-4-yl-propyl)-ureido]-3-(pyridin-3-ylmethoxy)-isothiazole-4-carboxylic acid amide] came in with a 50% inhibitory concentration (IC50) of 0.437 µM. The compound `NC(=O)c1c(OCc2cccnc2)nsc1NC(=O)NCCN1CCOCC1` [Example 16, 5-[3-(2-Morpholin-4-yl-ethyl)-ureido]-3-(pyridin-3-ylmethoxy)-isothiazole-4-carboxylic acid amide] came in with a half-maximal inhibitory concentration (IC50) of 0.855 µM. Compared with the last compound, the IC50 is about 2-fold higher.

On to `CCN(CC)CCNC(=O)Nc1snc(OCc2cccnc2)c1C(N)=O` [Example 17, 5-[3-(2-Diethylamino-ethyl)-ureido]-3-(pyridin-3-ylmethoxy)-isothiazole-4-carboxylic acid amide], for which the 50% inhibitory concentration (IC50) was determined as 1.94 µM. The figure for `CN(C)CCCNC(=O)Nc1snc(OCc2cccnc2)c1C(N)=O` [Example 18, 5-[3-(3-Dimethylamino-propyl)-ureido]-3-(pyridin-3-ylmethoxy)-isothiazole-4-carboxylic acid amide] is 0.801 µM; for `CN1CCCC1CCNC(=O)Nc1snc(OCc2cccnc2)c1C(N)=O` (stereo not drawn) [Example 19, 5-{3-[2-(1-Methyl-pyrrolidin-2-yl)-ethyl]-ureido}-3-(pyridin-3-ylmethoxy)-isothiazole-4-carboxylic acid amide] it is 0.457 µM.

Compound `CC1CCCCN1CCCNC(=O)Nc1snc(OCc2cccnc2)c1C(N)=O` (stereo not drawn) [Example 20, 5-{3-[3-(2-Methyl-piperidin-1-yl)-propyl]-ureido}-3-(pyridin-3-ylmethoxy)-isothiazole-4-carboxylic acid amide] showed a half-maximal inhibitory concentration (IC50) of 0.966 µM. The figure for `NC(=O)c1c(OCc2cccnc2)nsc1NC(=O)NC[C@H]1CCCCC[C@H]1O` [Example 21, (R),(R)-5-[3-(2-Hydroxy-cycloheptylmethyl)-ureido]-3-(pyridin-3-ylmethoxy)-isothiazole-4-carboxylic acid amide] is 0.759 µM; for `NC(=O)c1c(OCc2cccnc2)nsc1NC(=O)NC[C@H]1CCCCCC[C@H]1O` [Example 22, (R),(R)-5-[3-(2-Hydroxy-cyclooctylmethyl)-ureido]-3-(pyridin-3-ylmethoxy)-isothiazole-4-carboxylic acid amide] it is 0.753 µM. Consider `NC(=O)c1c(OCc2cccnc2)nsc1NC(=O)NCCO` [Example 23, 5-[3-(2-Hydroxy-ethyl)-ureido]-3-(pyridin-3-ylmethoxy)-isothiazole-4-carboxylic acid amide], for which half-maximal inhibition (IC50) was put at 0.349 µM. The compound `CCC(O)CNC(=O)Nc1snc(OCc2cccnc2)c1C(N)=O` (stereo not drawn) [Example 24, 5-[3-(2-Hydroxy-butyl)-ureido]-3-(pyridin-3-ylmethoxy)-isothiazole-4-carboxylic acid amide] came in with an IC50 of 0.669 µM. In turn, `CC(Oc1nsc(NC(=O)NCc2ccccn2)c1C(N)=O)c1cccnc1` (stereo not drawn) [Example 25, 3-(1-Pyridin-3-yl-ethoxy)-5-(3-pyridin-2-ylmethyl-ureido)-isothiazole-4-carboxylic acid amide] showed a concentration for half-maximal inhibition (IC50) of 7.39 µM. The compound `COc1cccc(OC)c1CNC(=O)Nc1snc(OC(C)c2cccnc2)c1C(N)=O` (stereo not drawn) [Example 26, 5-[3-(2,6-Dimethoxy-benzyl)-ureido]-3-(1-pyridin-3-yl-ethoxy)-isothiazole-4-carboxylic acid amide] showed a concentration for half-maximal inhibition (IC50) of 0.502 µM.

`CNC(=O)Nc1snc(OC(C)c2cccnc2)c1C(N)=O` (stereo not drawn) [Example 27, 5-(3-Methyl-ureido)-3-(1-pyridin-3-yl-ethoxy)-isothiazole-4-carboxylic acid amide]: the half-maximal inhibitory concentration (IC50) was 0.71 µM.
